Values joined by “and” are separate entries in the source; they are usually repeats but may differ in a detail not shown here. Equal values may be shown once.
Tests used:
C1r (C1ra) mRNA = assay: siRNA silencing in CHO-K1 derived cells, mRNA expression by real-time RT-PCR; type: cell-based, Chinese hamster; details: for residual protease gene-expression: siRNA negative control cells = 100%
Description: (§1) First, the proteolytic cleavage site(s) of different recombinant proteins that are prone to clipping were analyzed using different techniques including CE-SDS analysis, mass spectrometry and in silico analysis (data not shown). […] The siRNAs were designed against the following target mRNAs expressed in CHO cells: 1. Matriptase (MT-SP1; also referred to herein as St14), 2. C1r (complement component activated C1r; also referred to as Ctra), 3. C1s (complement component C1sB; also referred to as Gm5077), 4. Plat (t-plasminogen activator) and 5. Prss35 (protease, serine, 35). These target genes encode trypsin-like proteases that are either secreted or transmembrane proteins and thus could be involved in clipping of recombinantly expressed proteins that are secreted into the cell culture medium. It was confirmed in advance that these proteins are expressed by the CHO cells. Table 2 provides an overview over the respective target genes:
(§2) RNAi transfection of CHO-K1 derived cells was performed using Lipofectamine® RNAiMAX Reagent (Life Technology, cat. 13778), following the ‘Reverse Transfection Protocol’ of the manual MAN0001182, scaled up for 6-well plates. For each mRNA target, the two most efficient concentrations of RNAi duplex molecules were used among 100, 125 and 150 pmol: 125 and 150 pmol for MT-SP1 (St14), 125 and 150 pmol for C1r (C1ra), 100 and 125 pmol for Cis (Gm5077), 125 and 150 pmol for Plat and 100 and 125 pmol for Prss35. RNAi duplex molecules of the two selected concentrations were diluted in 1 ml Opti-MEM® (Gibco, cat. 31985-062). As RNAi negative control (siRNA negative control), the Silencer@ Negative Control No. 1 siRNA (AM4611) was used (at 125 pmol). 5 μl Lipofectamine® RNAiMAX Reagent was added in each well. 2 ml of a cell suspension with a concentration of 0.5×10^6 cells/ml were added and plates were incubated at 37° C. and 10% CO2. Three days after transfection, cell density was measured, total RNA of 3×10^6 viable cells was extracted using RNeasy Plus Mini Kit (Qiagen, cat. 74134) and conditioned medium was collected from each well. To control the silencing effect on the target genes, mRNA expression was determined by real-time RT-PCR.

C1s (Gm5077) mRNA = assay: as above; type: cell-based, Chinese hamster; details: for residual protease gene-expression: siRNA negative control cells = 100%
Description: as §1, §2

[1] = tested on: Matriptase (MT-SP1, St14) mRNA; assay: as above; type: cell-based, Chinese hamster; details: for residual protease gene-expression: siRNA negative control cells = 100%, three days after transfection
Description: as §1, §2

Plat mRNA = assay: as above; type: cell-based, Chinese hamster; details: for residual protease gene-expression: siRNA negative control cells = 100%
Description: as §1, §2

Prss35 mRNA = assay: as above; type: cell-based, Chinese hamster; details: for residual protease gene-expression: siRNA negative control cells = 100%
Description: as §1, §2

matriptase = biological target: T1, matriptase (Homo sapiens, UniProt Q9Y5Y6); details: Forbs et al. 2005; Desilets et al. 2006; cited from earlier work
T1 sequence (Q9Y5Y6 1-855): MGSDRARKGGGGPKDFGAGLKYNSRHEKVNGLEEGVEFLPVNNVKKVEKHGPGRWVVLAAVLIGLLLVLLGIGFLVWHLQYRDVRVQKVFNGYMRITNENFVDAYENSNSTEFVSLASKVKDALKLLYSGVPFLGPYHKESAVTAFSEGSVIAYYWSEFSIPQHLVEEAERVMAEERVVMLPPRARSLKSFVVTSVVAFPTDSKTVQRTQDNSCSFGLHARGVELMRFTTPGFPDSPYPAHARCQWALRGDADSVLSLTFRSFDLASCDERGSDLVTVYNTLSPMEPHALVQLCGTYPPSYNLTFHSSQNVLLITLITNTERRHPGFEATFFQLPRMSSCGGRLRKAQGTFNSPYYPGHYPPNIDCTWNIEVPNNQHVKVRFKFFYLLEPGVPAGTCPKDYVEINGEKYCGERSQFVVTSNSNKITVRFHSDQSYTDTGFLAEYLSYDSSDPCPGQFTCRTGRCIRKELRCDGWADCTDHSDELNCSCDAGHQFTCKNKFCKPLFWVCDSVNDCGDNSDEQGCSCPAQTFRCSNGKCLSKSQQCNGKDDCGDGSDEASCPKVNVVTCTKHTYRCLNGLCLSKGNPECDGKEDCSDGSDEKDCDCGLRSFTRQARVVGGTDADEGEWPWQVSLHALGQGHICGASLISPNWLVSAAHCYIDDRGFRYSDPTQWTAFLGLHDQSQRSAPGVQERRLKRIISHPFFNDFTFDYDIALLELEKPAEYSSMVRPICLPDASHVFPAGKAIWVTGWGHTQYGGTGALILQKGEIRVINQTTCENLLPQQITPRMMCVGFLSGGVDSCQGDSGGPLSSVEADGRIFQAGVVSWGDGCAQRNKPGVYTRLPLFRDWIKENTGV

C1r (C1ra): siRNA against C1ra mRNA, sense SEQ ID NO: 8, antisense SEQ ID NO: 9 (sense GAUGUCUUUUCUCAAAAUATT; antisense UAUUUUGAGAAAAGACAUCAT; chemistry not given here)
residual protease gene-expression (C1r (C1ra) mRNA; 125 pmol siRNA): 6.3%
residual protease gene-expression (C1r (C1ra) mRNA; 150 pmol siRNA): 6.7%
mRNA reduction (C1r (C1ra) mRNA; two siRNA concentrations): 93.7% and 93.3%

C1s (Gm5077): siRNA against Gm5077 (C1s) mRNA, sense SEQ ID NO: 10, antisense SEQ ID NO: 11 (sense CGCUGAACGUGUGAUUAUUTT; antisense AAUAAUCACACGUUCAGCGGT; chemistry not given here)
residual protease gene-expression (C1s (Gm5077) mRNA; 100 pmol siRNA): 11.9%
residual protease gene-expression (C1s (Gm5077) mRNA; 125 pmol siRNA): 14.4%
mRNA reduction (C1s (Gm5077) mRNA; two siRNA concentrations, listed as Cis (Gm5077)): 88.1% and 85.6%

MT-SP1: siRNA against matriptase mRNA, sense SEQ ID NO: 6, antisense SEQ ID NO: 7 (sense GCAAGAUCACUGUUCGCUUTT; antisense AAGCGAACAGUGAUCUUGCTG; chemistry not given here)
residual protease gene-expression ([1]; 125 pmol siRNA): 18.6%
residual protease gene-expression ([1]; 150 pmol siRNA): 18.2%
MT-SP1 suppressed in comparison to the negative control ([1]; two set-ups (125 and 150 pmol siRNA)): 81.4% and 81.8%

Plat: siRNA against Plat mRNA, sense SEQ ID NO: 12, antisense SEQ ID NO: 13 (sense GAAACAAGAUGAAGACAGATT; antisense UCUGUCUUCAUCUUGUUUCCC; chemistry not given here)
residual protease gene-expression (Plat mRNA; 125 pmol siRNA): 8.3%
residual protease gene-expression (Plat mRNA; 150 pmol siRNA): 5.1%
mRNA reduction (Plat mRNA; two siRNA concentrations): 91.7% and 94.9%

Prss35: siRNA against Prss35 mRNA, sense SEQ ID NO: 14, antisense SEQ ID NO: 15 (sense GGCCUUAGACUACGACUAUTT; antisense AUAGUCGUAGUCUAAGGCCGG; chemistry not given here)
residual protease gene-expression (Prss35 mRNA; 100 pmol siRNA): 18.4%
residual protease gene-expression (Prss35 mRNA; 125 pmol siRNA): 14.8%
mRNA reduction (Prss35 mRNA; two siRNA concentrations): 81.6% and 85.2%

eglin c
Ki (matriptase): 18 nM

— US11512335B2, “Vertebrate cells and methods for recombinantly expressing a polypeptide of interest” (Novartis AG, priority 2014, dated 2022)
